Bridge positions count the residues as written; N and C are the ends. Square brackets hold non-standard residues; d marks the D form. Peptide text beside a SMILES is read from it. * marks the point of attachment. ξ: configuration not given here. Bip = N[C@@H](Cc1ccc(-c2ccccc2)cc1)C(=O)O; Phe(3-Me) = Cc1cccc(C[C@H](N)C(=O)O)c1; Cha = N[C@@H](CC1CCCCC1)C(=O)O; Cit = NC(=O)NCCC[C@H](N)C(=O)O; Thr(3ξ) = CC(O)[C@H](N)C(=O)O; Dap(Me) = CNC[C@H](N)C(=O)O; Carboxymethyl = O=C(O)C*; Orn = NCCC[C@H](N)C(=O)O; Aun = NCCCCCCCCCCC(=O)O; Dab = NCC[C@H](N)C(=O)O; AEEA = NCCOCCOCC(=O)O; ξDab = NCCC(N)C(=O)O
target: T1, PD-1/PD-L1 interaction (PE-labeled human PD-L1-Ig binding to Jurkat cell line over-expressing human PD-1) (Homo sapiens, UniProt Q15116); assay: Jurkat-PD-1 Cell Binding High-Content Screening Assay (CBA); assay type: cell-based; settings: Jurkat cell line over-expressing human PD-1; PE-labeled PD-L1-Ig 20 nM final; read-out: Jurkat hPD1-PDL1 IC50
T1 construct: expressed in transfected cells; host or cells: Jurkat
T1 sequence (Q15116 25-288): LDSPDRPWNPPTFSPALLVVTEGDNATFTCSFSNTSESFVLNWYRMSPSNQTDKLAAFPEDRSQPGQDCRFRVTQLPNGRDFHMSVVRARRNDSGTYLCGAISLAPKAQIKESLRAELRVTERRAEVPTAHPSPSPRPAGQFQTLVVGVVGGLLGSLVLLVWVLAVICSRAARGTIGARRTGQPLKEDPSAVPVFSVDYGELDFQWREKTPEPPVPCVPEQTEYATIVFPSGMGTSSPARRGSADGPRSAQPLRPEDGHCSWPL
In short: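 Jurkat cells stably over-expressing human PD-1 were seeded in DMEM with 10% fetal calf serum and pre-incubated with compound for 2 h at 37° C. PE-labeled human PD-L1-Ig was then added at 20 nM final for 1 hour, after which cells were fixed with paraformaldehyde, Hoechst-stained and imaged by high-content microscopy.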

Row | Compound | IC50
1 | CC(=O)NCCCC[C@@H]1NC(=O)[C@H](C(C)C)NC(=O)[C@H](CC2CCCCC2)NC(=O)[C@H](CCN)NC(=O)[C@@H](CC(C)C)NC(=O)[C@H](CCCN)NC(=O)[C@H](C(C)C)NC(=O)[C@H](Cc2ccc(-c3ccccc3)cc2)NC(=O)[C@H](C(C)C)NC(=O)[C@H](Cc2cccc(C)c2)NC(=O)[C@H](CC(=O)O)NC(=O)[C@H](Cc2ccc(OCC(=O)O)cc2)NC(=O)[C@H](C(C)O)NC(=O)CSC[C@@H](C(=O)N[C@H](CCC(N)=O)C(=O)NCCCCCCCCCCC(=O)O)NC1=O (stereo partly drawn) [Compound 3447] ({CH2CO}-[Thr(3ξ)]Y(Carboxymethyl)D[Phe(3-Me)]V[Bip]V[Orn][dL][Dab][Cha]VK(Ac)C[dQ][Aun]-OH; thioether N-14) | 10.5 nM
2 | Cc1cccc(C[C@@H]2NC(=O)[C@H](CC(=O)O)NC(=O)[C@H](Cc3ccc(OCC(=O)O)cc3)NC(=O)[C@H](C(C)O)NC(=O)CSC[C@@H](C(=O)NC(CCN)C(=O)NCCCCCCCCCCC(=O)O)NC(=O)[C@H](C(C)O)NC(=O)[C@H](C(C)C)NC(=O)[C@H](CC3CCCCC3)NC(=O)[C@H](CCN)NC(=O)[C@@H](CC(C)C)NC(=O)[C@H](CCCN)NC(=O)[C@H](CCC(=O)O)NC(=O)[C@H](Cc3ccc(-c4ccccc4)cc3)NC(=O)[C@H](CCC(=O)O)NC2=O)c1 (stereo partly drawn) [Compound 3448] ({CH2CO}-[Thr(3ξ)]Y(Carboxymethyl)D[Phe(3-Me)]E[Bip]E[Orn][dL][Dab][Cha]V[Thr(3ξ)]C[ξDab][Aun]-OH; thioether N-14) | 91 nM
3 | Cc1cccc(C[C@@H]2NC(=O)[C@H](CC(=O)O)NC(=O)[C@H](Cc3ccc(OCC(=O)O)cc3)NC(=O)[C@H](CCCNC(=N)N)NC(=O)CSC[C@@H](C(=O)N[C@@H](CCN)C(=O)NCCCCCCCCCCC(=O)O)NC(=O)[C@H](C(C)O)NC(=O)[C@H](C(C)C)NC(=O)[C@H](CC3CCCCC3)NC(=O)[C@H](CCN)NC(=O)[C@@H](CC(C)C)NC(=O)[C@H](CCCNC(N)=O)NC(=O)[C@H](Cc3ccc(OCC(=O)O)cc3)NC(=O)[C@H](Cc3ccc(-c4ccccc4)cc3)NC(=O)[C@H](C(C)C)NC2=O)c1 (stereo partly drawn) [Compound 3450] ({CH2CO}-RY(Carboxymethyl)D[Phe(3-Me)]V[Bip]Y(Carboxymethyl)[Cit][dL][Dab][Cha]V[Thr(3ξ)]C[Dab][Aun]-OH; thioether N-14) | 18.3 nM
4 | Cc1cccc(C[C@@H]2NC(=O)[C@H](CC(=O)O)NC(=O)[C@H](Cc3ccc(OCC(=O)O)cc3)NC(=O)[C@H](C(C)O)NC(=O)CSC[C@@H](C(=O)N[C@@H](CCN)C(=O)NCCCCCCCCCCC(=O)O)NC(=O)[C@H](C(C)O)NC(=O)[C@H](C(C)C)NC(=O)[C@H](CC3CCCCC3)NC(=O)[C@H](CCN)NC(=O)[C@@H](CC(C)C)NC(=O)[C@H](CCCNC(N)=O)NC(=O)[C@H](Cc3ccc(OCC(=O)O)cc3)NC(=O)[C@H](Cc3ccc(-c4ccccc4)cc3)NC(=O)[C@H](C(C)C)NC2=O)c1 (stereo partly drawn) [Compound 3451] ({CH2CO}-[Thr(3ξ)]Y(Carboxymethyl)D[Phe(3-Me)]V[Bip]Y(Carboxymethyl)[Cit][dL][Dab][Cha]V[Thr(3ξ)]C[Dab][Aun]-OH; thioether N-14) | 18.4 nM
5 | Cc1cccc(C[C@@H]2NC(=O)[C@H](CC(=O)O)NC(=O)[C@H](Cc3ccc(OCC(=O)O)cc3)NC(=O)[C@H](CCCNC(=N)N)NC(=O)CSC[C@@H](C(=O)N[C@H](CC(N)=O)C(=O)NCCCCCCCCCCC(=O)O)NC(=O)[C@H](C(C)O)NC(=O)[C@H](C(C)C)NC(=O)[C@H](CC3CCCCC3)NC(=O)[C@H](CCN)NC(=O)[C@@H](CC(C)C)NC(=O)[C@H](CCCN)NC(=O)[C@H](Cc3ccc(O)cc3)NC(=O)[C@H](Cc3ccc(-c4ccccc4)cc3)NC(=O)[C@H](C(C)C)NC2=O)c1 (stereo partly drawn) [Compound 3452] ({CH2CO}-RY(Carboxymethyl)D[Phe(3-Me)]V[Bip]Y[Orn][dL][Dab][Cha]V[Thr(3ξ)]C[dN][Aun]-OH; thioether N-14) | 25.8 nM
6 | Cc1cccc(C[C@@H]2NC(=O)[C@H](CC(=O)O)NC(=O)[C@H](Cc3ccc(OCC(=O)O)cc3)NC(=O)[C@H](Cc3c[nH]cn3)NC(=O)CSC[C@@H](C(=O)N[C@@H](CCN)C(=O)NCCCCCCCCCCC(=O)O)NC(=O)[C@H](C(C)O)NC(=O)[C@H](C(C)C)NC(=O)[C@H](CC3CCCCC3)NC(=O)[C@H](CCN)NC(=O)[C@@H](CC(C)C)NC(=O)[C@H](CCCN)NC(=O)[C@H](CCCNC(N)=O)NC(=O)[C@H](Cc3ccc(-c4ccccc4)cc3)NC(=O)[C@H](C(C)C)NC2=O)c1 (stereo partly drawn) [Compound 3453] ({CH2CO}-HY(Carboxymethyl)D[Phe(3-Me)]V[Bip][Cit][Orn][dL][Dab][Cha]V[Thr(3ξ)]C[Dab][Aun]-OH; thioether N-14) | 19.9 nM
7 | CNC[C@@H]1NC(=O)CSC[C@@H](C(=O)N[C@@H](CCN)C(=O)NCCCCCCCCCCC(=O)O)NC(=O)[C@H](C(C)O)NC(=O)[C@H](C(C)C)NC(=O)[C@H](CC2CCCCC2)NC(=O)[C@H](CCN)NC(=O)[C@@H](CC(C)C)NC(=O)[C@H](CCCN)NC(=O)[C@H](CCCNC(N)=O)NC(=O)[C@H](Cc2ccc(-c3ccccc3)cc2)NC(=O)[C@H](C(C)C)NC(=O)[C@H](Cc2cccc(C)c2)NC(=O)[C@H](CC(=O)O)NC(=O)[C@H](Cc2ccc(OCC(=O)O)cc2)NC1=O (stereo partly drawn) [Compound 3454] ({CH2CO}-[Dap(Me)]Y(Carboxymethyl)D[Phe(3-Me)]V[Bip][Cit][Orn][dL][Dab][Cha]V[Thr(3ξ)]C[Dab][Aun]-OH; thioether N-14) | 16.2 nM
8 | Cc1cccc(C[C@@H]2NC(=O)[C@H](CC(=O)O)NC(=O)[C@H](Cc3ccc(OCC(=O)O)cc3)NC(=O)[C@H](CC(N)=O)NC(=O)CSC[C@@H](C(=O)N[C@@H](CCN)C(=O)NCCCCCCCCCCC(=O)O)NC(=O)[C@H](C(C)O)NC(=O)[C@H](C(C)C)NC(=O)[C@H](CC3CCCCC3)NC(=O)[C@H](CCN)NC(=O)[C@@H](CC(C)C)NC(=O)[C@H](CCCN)NC(=O)[C@H](CCCNC(N)=O)NC(=O)[C@H](Cc3ccc(-c4ccccc4)cc3)NC(=O)[C@H](C(C)C)NC2=O)c1 (stereo partly drawn) [Compound 3455] ({CH2CO}-NY(Carboxymethyl)D[Phe(3-Me)]V[Bip][Cit][Orn][dL][Dab][Cha]V[Thr(3ξ)]C[Dab][Aun]-OH; thioether N-14) | 14.6 nM
9 | Cc1cccc(C[C@@H]2NC(=O)[C@H](CC(=O)O)NC(=O)[C@H](Cc3ccc(OCC(=O)O)cc3)NC(=O)[C@H](C(C)O)NC(=O)CSC[C@@H](C(=O)N[C@@H](CCN)C(=O)NCCCCCCCCCCC(=O)O)NC(=O)[C@H](C(C)O)NC(=O)[C@H](C(C)C)NC(=O)[C@H](CC3CCCCC3)NC(=O)[C@H](CCN)NC(=O)[C@@H](CC(C)C)NC(=O)[C@H](CCCN)NC(=O)[C@H](Cc3ccc(O)cc3)NC(=O)[C@H](Cc3ccc(-c4ccccc4)cc3)NC(=O)[C@H](Cc3ccc(O)cc3)NC2=O)c1 (stereo partly drawn) [Compound 3456] ({CH2CO}-[Thr(3ξ)]Y(Carboxymethyl)D[Phe(3-Me)]Y[Bip]Y[Orn][dL][Dab][Cha]V[Thr(3ξ)]C[Dab][Aun]-OH; thioether N-14) | 26.4 nM
10 | Cc1cccc(C[C@@H]2NC(=O)[C@H](CC(=O)O)NC(=O)[C@H](Cc3ccc(OCC(=O)O)cc3)NC(=O)[C@H](CCCNC(=N)N)NC(=O)CSC[C@@H](C(=O)N[C@@H](CCN)C(=O)NCCCCCCCCCCC(=O)O)NC(=O)[C@H](C(C)O)NC(=O)[C@H](C(C)C)NC(=O)[C@H](CC3CCCCC3)NC(=O)[C@H](CCN)NC(=O)[C@@H](CC(C)C)NC(=O)[C@H](CCCN)NC(=O)[C@H](Cc3ccc(O)cc3)NC(=O)[C@H](Cc3ccc(-c4ccccc4)cc3)NC(=O)[C@H](C(C)C)NC2=O)c1 (stereo partly drawn) [Compound 3457] ({CH2CO}-RY(Carboxymethyl)D[Phe(3-Me)]V[Bip]Y[Orn][dL][Dab][Cha]V[Thr(3ξ)]C[Dab][Aun]-OH; thioether N-14) | 37.4 nM
11 | Cc1cccc(C[C@@H]2NC(=O)[C@H](CC(=O)O)NC(=O)[C@H](Cc3ccc(OCC(=O)O)cc3)NC(=O)[C@H](C(C)O)NC(=O)CSC[C@@H](C(=O)N[C@@H](CCN)C(=O)NCCCCCCCCCCC(=O)O)NC(=O)[C@H](C(C)O)NC(=O)[C@H](C(C)C)NC(=O)[C@H](CC3CCCCC3)NC(=O)[C@H](CCN)NC(=O)[C@@H](CC(C)C)NC(=O)[C@H](CCCN)NC(=O)[C@H](CCCNC(N)=O)NC(=O)[C@H](Cc3ccc(-c4ccccc4)cc3)NC(=O)[C@H](C(C)C)NC2=O)c1 (stereo partly drawn) [Compound 3458] ({CH2CO}-[Thr(3ξ)]Y(Carboxymethyl)D[Phe(3-Me)]V[Bip][Cit][Orn][dL][Dab][Cha]V[Thr(3ξ)]C[Dab][Aun]-OH; thioether N-14) | 18.4 nM
12 | Cc1cccc(C[C@@H]2NC(=O)[C@H](CC(=O)O)NC(=O)[C@H](Cc3ccc(OCC(=O)O)cc3)NC(=O)[C@H](CCCNC(=N)N)NC(=O)CSC[C@@H](C(=O)NCCOCCOCC(=O)NCCCCCCCCCCC(=O)O)NC(=O)[C@H](C(C)O)NC(=O)[C@H](C(C)C)NC(=O)[C@H](CC3CCCCC3)NC(=O)[C@H](CCN)NC(=O)[C@@H](CC(C)C)NC(=O)[C@H](CCCN)NC(=O)[C@H](CCCNC(N)=O)NC(=O)[C@H](Cc3ccc(-c4ccccc4)cc3)NC(=O)[C@H](C(C)C)NC2=O)c1 (stereo partly drawn) [Compound 3459] ({CH2CO}-RY(Carboxymethyl)D[Phe(3-Me)]V[Bip][Cit][Orn][dL][Dab][Cha]V[Thr(3ξ)]C[AEEA][Aun]-OH; thioether N-14) | 14.2 nM
13 | Cc1cccc(C[C@@H]2NC(=O)[C@H](CC(=O)O)NC(=O)[C@H](Cc3ccc(OCC(=O)O)cc3)NC(=O)[C@H](C(C)O)NC(=O)CSC[C@@H](C(=O)NCCOCCOCC(=O)NCCCCCCCCCCC(=O)O)NC(=O)[C@H](C(C)O)NC(=O)[C@H](C(C)C)NC(=O)[C@H](CC3CCCCC3)NC(=O)[C@H](CCN)NC(=O)[C@@H](CC(C)C)NC(=O)[C@H](CCCN)NC(=O)[C@H](CCCNC(N)=O)NC(=O)[C@H](Cc3ccc(-c4ccccc4)cc3)NC(=O)[C@H](C(C)C)NC2=O)c1 (stereo partly drawn) [Compound 3460] ({CH2CO}-[Thr(3ξ)]Y(Carboxymethyl)D[Phe(3-Me)]V[Bip][Cit][Orn][dL][Dab][Cha]V[Thr(3ξ)]C[AEEA][Aun]-OH; thioether N-14) | 17 nM
